Experiments:
[1] = tested on: L-SMase; experiment: SMase assay of CHO cell homogenate and 16,000-x-g pellet; format: biochemical, Chinese hamster
Procedure: FIGS. 18A-B. Zn^2+-dependency of SMase in a sonicated cell homogenate and 16,000-x-g pellet. CHO cells were grown to 90% confluency in Ham's F-12 media containing 10% HI-FBS and PSG and then washed 3 times with PBS before incubation in serum-free medium containing 0.2% BSA for 24 h. The cells were then washed 3 times in 0.25 M sucrose and the total cell homogenate and the 16,000-x-g cellular subfraction were isolated as described in “Experimental Procedures”. Twelve micrograms of the cell homogenate (Homogenate) and 2.5 μg of the 16,000-x-g pellet (16K-xg Pellet) were assayed for SMase activity in the presence of either 5 mM EDTA (hatched bars) or 0.1 mM ZnCl2 (solid bars) for 1 h at 37° C. at pH 5.0. […]
SMase Assay—As previously described (Schissel et al., 1996), the standard 200-μl assay mixture consisted of up to 40 μl of sample (conditioned media or homogenized cells; see above) and a volume of assay buffer (0.1 M sodium acetate, pH 5.0) to bring the volume to 160 μl. […] The ceramide spots were scraped and directly counted to quantify [^3H]ceramide. Typically, the assay reactions contained approximately 20 μg of cellular homogenate protein and a volume of conditioned media derived from a quantity of cells equivalent to approximately 50 μg of cellular protein.

[2] = tested on: mannose-phosphorylated S-SMase of HUVECs; experiment: Binding of HUVEC S-SMase to mannose-phosphate receptor column; format: cell-based, human; settings: conditioned medium of IL-1β-treated HUVECs; Western blot densitometry
Description: We recently reported that S-SMase is secreted through a Golgi pathway that bypasses the lysosomal pathway of L-SMase. Thus, we considered three general mechanisms to explain how IL-Lβ increases the secretion of SMase: secretion of mannose-phosphorylated SMase during trafficking of the ASM precursor to lysosomes (e.g., due to saturation of the mannose-6-phosphate receptor—cf. Ref. (46)), induction of secretion of intralysosomal SMase (cf. Ref. (47)), or increased trafficking of the ASM precursor protein through the normal Golgi secretory pathway. To begin, we assessed the mannose-phosphorylation state of S-SMase from control and IL-1β-treated HUVECs by passing conditioned media from these cells over a mannose-phosphate receptor column (cf. Ref. (48)). By Western blot analysis quantified by densitometry, only 7.9% of control S-SMase and 4.9% of S-SMase from the cytokine-treated cells bound to the column and could be eluted with mannose-6-phosphate. As a control for this experiment, we have previously shown that the massive secretion of SMase by ASM-transfected CHO cells can be partly explained by secretion of mannose-phosphorylated SMase due to saturation of the mannose-6-phosphate receptor^2; when conditioned medium from these cells was passed over the receptor column, 40.3% bound and could be eluted with mannose-6-phosphate. […]

Row | S-SMase bound to mannose-phosphate receptor column and eluted with mannose-6-phosphate [2] | Molecule | effect of exogenous Zn2+ on SMase activity ([1]; 16,000-x-g pellet (intact lysosomes), sonicated) | effect of exogenous Zn2+ on SMase activity ([1]; sonicated cell homogenate)
1 | – | [Cl-].[Cl-].[Zn+2] [Zn^2+, ZnCl2] | substantially stimulated | no effect
2 | 4.9% | IL-1β: human recombinant interleukin-1β | – | –

— patent US6613322B2, “Method for treating a subject suffering from conditions associated with an extracellular zinc sphingomyelinase” (The Trustees of Columbia University in the City of New York, priority 1997, dated 2003)
